Reference: US9757375B2, “Compounds that inhibit human DNA ligases and methods of treating cancer” (University of Maryland, Baltimore, priority 2007, dated 2017)
Read-outs that look alike come from different tables or passages of the source.

Experiments:
hLigI = target: T1, hLigI (Homo sapiens, UniProt P18858); assay: High-throughput fluorescence-based DNA joining (ligation) assay; type: biochemical
T1 construct: made in house
Outline: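 Nicked DNA substrate (10 pmol) was incubated with 0.25 pmol hLigI, with or without 100 μmol/L test compound, in duplicate. Afterwards the DNA was denatured and renatured with a 20-fold excess of unmodified oligonucleotide. Ligation forms an AF488/BHQ1 hairpin, read as reduced fluorescence at 518 nm.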

MCF10A cells [1] = assay: MTT cell growth assay; type: cell-based, human; conditions: Homo sapiens, MCF-10A
Procedure: (§1) The activity of hits from the initial screen was further validated using the MTT assay. Briefly, MCF10A and HCT116 cells were seeded in 96 well plates at 300 and 1200 cells per well, respectively, and allowed to adhere overnight. The following day, serial dilutions of compounds in media were added to the cells in a final volume 200 μl. After incubation for 5 days, MTT reagent (3-(4,5-dimthylthiazol-2-yl)-2,5-diphenyltatrazolium) was added and incubation was continued for 4 h. Formazan crystals generated by reduction of the MTT reagent in mitochondria were solubilized with isopropanol prior to the measurement of absorbance at 560 nm wavelength in a plate reader.
To extend the results of the […] cell culture screening assay, a subset of compounds were tested in larger cultures. Different concentrations of Compounds 67 and 151 were added to asynchronous subconfluent populations of HCT116 and MCF10A cells. Asynchronous subconfluent populations of HCT116 and MCF10A cells were pre-treated with different concentrations of compound 64 prior to the addition of 3 aminobenzamide (2 mM) MMS (100 μM) or cis-platinum (1 μM). After incubation for 5 days, cell growth was measured by the MTT assay (16).

HCT116 and MCF10A cells [2] = assay: Cell proliferation screen, result stated for one or both cell lines; type: cell-based; conditions: Homo sapiens, read-out: IC50 of inhibition of proliferation
MCF10A cells [3] = assay: Screen for potentiation of DNA damaging agents (MMS, camptothecin, cis-platinum, 3 aminobenzamide, ionizing radiation); type: cell-based, human; conditions: 1 = no sensitization; for MMS: Ratios of IC50 MCF10A: compound alone vs combination with MMS (100 μM)
From the text: The 192 human DNA ligase inhibitors were screened in parallel for effects on proliferation and the ability to potentiate the effects of several DNA damaging agents using two cell human lines, a colon cancer line HCT116 and a normal breast epithelial cell line MCF10A using a Biomek FX Laboratory Automation Workstation as described (23). The DNA damaging agents used, methyl methanesulfonate (MMS), camptothecin, cis-platinum, 3 aminobenzamide and ionizing radiation, are representatives of classes of agents used to treat cancer. Briefly, HCT116 and MCF10A cells were plated in 96 well plates such that the cultures were about 80% confluent after 5 days incubation. Compounds were added to the cultures at either 15 μM or 50 μM 1 day after plating. After incubation for 3 days, cell lysed in a solution containing 1.2% Igepal CA-630 and SYBR green that stains DNA (1:1000, Molecular Probes, Eugene, Oreg.). Subsequently, fluorescence was measured per well. The studies with DNA damaging agents were performed as follows. […] Cultures were incubated for 3 days and then treated as above.

human DNA ligase IV = human DNA ligase IV (Homo sapiens, UniProt P49917); assay: High-throughput fluorescence-based DNA joining (ligation) assay; type: biochemical
Chain of human DNA ligase IV (P49917 whole entry): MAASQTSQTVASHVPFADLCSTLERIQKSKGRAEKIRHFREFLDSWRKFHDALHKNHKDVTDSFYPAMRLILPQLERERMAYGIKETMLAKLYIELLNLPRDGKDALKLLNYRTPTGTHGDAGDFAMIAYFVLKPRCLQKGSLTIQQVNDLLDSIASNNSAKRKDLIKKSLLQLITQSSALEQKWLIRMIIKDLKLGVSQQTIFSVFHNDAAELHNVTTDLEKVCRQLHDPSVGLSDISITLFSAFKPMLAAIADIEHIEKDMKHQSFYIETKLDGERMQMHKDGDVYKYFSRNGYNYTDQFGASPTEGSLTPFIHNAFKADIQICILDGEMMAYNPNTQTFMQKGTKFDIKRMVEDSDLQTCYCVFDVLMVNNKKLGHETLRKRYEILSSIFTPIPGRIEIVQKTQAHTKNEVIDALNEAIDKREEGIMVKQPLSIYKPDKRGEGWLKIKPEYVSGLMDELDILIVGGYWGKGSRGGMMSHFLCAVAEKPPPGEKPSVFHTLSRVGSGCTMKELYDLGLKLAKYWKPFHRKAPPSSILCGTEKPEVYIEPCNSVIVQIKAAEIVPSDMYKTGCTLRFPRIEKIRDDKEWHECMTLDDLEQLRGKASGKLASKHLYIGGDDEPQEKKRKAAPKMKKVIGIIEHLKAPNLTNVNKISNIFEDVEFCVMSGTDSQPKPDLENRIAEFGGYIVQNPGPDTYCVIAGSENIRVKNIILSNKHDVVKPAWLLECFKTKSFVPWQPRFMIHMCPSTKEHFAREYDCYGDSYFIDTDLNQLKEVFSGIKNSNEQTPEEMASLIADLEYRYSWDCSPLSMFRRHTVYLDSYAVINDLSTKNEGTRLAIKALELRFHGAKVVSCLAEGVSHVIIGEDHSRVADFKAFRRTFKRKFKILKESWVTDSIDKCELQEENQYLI
Chain of human DNA ligase IV (Q13426 whole entry partner): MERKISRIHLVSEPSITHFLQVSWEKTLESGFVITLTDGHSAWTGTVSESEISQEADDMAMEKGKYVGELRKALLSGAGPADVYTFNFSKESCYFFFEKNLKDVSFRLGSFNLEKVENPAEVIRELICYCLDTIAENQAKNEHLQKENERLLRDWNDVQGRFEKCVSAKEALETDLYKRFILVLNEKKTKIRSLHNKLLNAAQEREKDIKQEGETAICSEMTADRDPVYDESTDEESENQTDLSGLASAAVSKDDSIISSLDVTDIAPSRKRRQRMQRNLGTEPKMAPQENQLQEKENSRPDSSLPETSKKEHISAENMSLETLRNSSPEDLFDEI
Outline: (§2)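 Ligation joins an AF488-labelled and a BHQ1-labelled oligonucleotide. After denaturation and renaturation with a 20-fold excess of unlabelled competitor strand, the product forms a quenched hairpin, so joining is read as loss of 518 nm fluorescence. Ligase III used a nicked duplex; ligase IV used two duplexes with short complementary single-strand ends.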

human DNA ligase III = target: T2, human DNA ligase III (Homo sapiens, UniProt P49916); assay: as above; type: biochemical
T2 sequence (P49916 1-862 isoform P49916-4): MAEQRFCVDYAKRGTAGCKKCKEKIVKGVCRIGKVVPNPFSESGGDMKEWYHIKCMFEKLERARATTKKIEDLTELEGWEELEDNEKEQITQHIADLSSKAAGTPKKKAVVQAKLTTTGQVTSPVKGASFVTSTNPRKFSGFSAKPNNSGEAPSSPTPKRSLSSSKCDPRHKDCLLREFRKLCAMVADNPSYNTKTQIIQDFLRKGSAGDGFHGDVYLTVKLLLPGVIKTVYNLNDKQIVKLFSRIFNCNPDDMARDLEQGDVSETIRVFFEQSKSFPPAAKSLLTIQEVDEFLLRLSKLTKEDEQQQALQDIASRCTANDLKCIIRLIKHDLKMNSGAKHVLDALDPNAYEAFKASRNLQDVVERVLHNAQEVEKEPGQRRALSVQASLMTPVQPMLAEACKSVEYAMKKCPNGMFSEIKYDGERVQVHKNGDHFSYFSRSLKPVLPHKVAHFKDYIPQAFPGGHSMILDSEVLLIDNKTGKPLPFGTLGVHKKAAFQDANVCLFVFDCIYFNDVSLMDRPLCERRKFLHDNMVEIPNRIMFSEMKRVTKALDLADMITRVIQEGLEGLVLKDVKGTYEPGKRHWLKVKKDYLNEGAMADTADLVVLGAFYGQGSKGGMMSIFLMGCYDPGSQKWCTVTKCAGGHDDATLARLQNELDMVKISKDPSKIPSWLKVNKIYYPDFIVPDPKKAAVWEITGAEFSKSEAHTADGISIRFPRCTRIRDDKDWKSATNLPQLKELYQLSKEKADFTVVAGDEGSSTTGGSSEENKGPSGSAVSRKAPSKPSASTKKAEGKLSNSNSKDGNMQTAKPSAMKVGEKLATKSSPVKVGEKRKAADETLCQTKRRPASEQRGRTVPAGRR
Outline: as §2

HCT116 cells [4] = assay: MTT cell growth assay; type: cell-based, human; conditions: Homo sapiens, HCT-116
Procedure: as §1
After incubation for 5 days, cell growth was measured by the MTT assay (16).

HCT116 and MCF10A cells [5] = assay: Screen for potentiation of DNA damaging agents, cell line not stated with the result; type: cell-based, human; conditions: 50 μM, MMS 100 μM
From the text: (§3) The 192 human DNA ligase inhibitors were screened in parallel for effects on proliferation and the ability to potentiate the effects of several DNA damaging agents using two cell human lines, a colon cancer line HCT116 and a normal breast epithelial cell line MCF10A using a Biomek FX Laboratory Automation Workstation as described (23). The DNA damaging agents used, methyl methanesulfonate (MMS), camptothecin, cis-platinum, 3 aminobenzamide and ionizing radiation, are representatives of classes of agents used to treat cancer. Briefly, HCT116 and MCF10A cells were plated in 96 well plates such that the cultures were about 80% confluent after 5 days incubation. Compounds were added to the cultures at either 15 μM or 50 μM 1 day after plating. After incubation for 3 days, cell lysed in a solution containing 1.2% Igepal CA-630 and SYBR green that stains DNA (1:1000, Molecular Probes, Eugene, Oreg.). Subsequently, fluorescence was measured per well. The studies with DNA damaging agents were performed as follows. […] For ionizing radiation, cells were pre-incubated with the compounds at 50 μM for 1 hour prior to exposure to 2 gray of ionizing radiation. Cultures were incubated for 3 days and then treated as above.

HCT116 cells [6] = assay: Screen for potentiation of DNA damaging agents (MMS, camptothecin, cis-platinum, 3 aminobenzamide, ionizing radiation); type: cell-based, human; conditions: compound alone vs combination with MMS (100 μM); 1 = no sensitization
From the text: as §3

hLigIV/XRCC4 = hLigIV/XRCC4 (Homo sapiens, UniProt P49917); assay: Radioactive gel-based DNA ligation assay; type: biochemical; parameters: concentration or dose not given beside the values
Chain of hLigIV/XRCC4 (P49917 whole entry): as the sequence (P49917 whole entry) above
Chain of hLigIV/XRCC4 (Q13426 whole entry partner): as the sequence (Q13426 whole entry partner) above

T4 DNA ligase = target: T3, T4 DNA ligase (Enterobacteria phage T4, UniProt P00970); assay: High-throughput fluorescence-based DNA joining assay, non-specific inhibitor control; type: biochemical, bacteriophage T4
T3 construct: purchased NEB
T3 sequence (P00970 1-487): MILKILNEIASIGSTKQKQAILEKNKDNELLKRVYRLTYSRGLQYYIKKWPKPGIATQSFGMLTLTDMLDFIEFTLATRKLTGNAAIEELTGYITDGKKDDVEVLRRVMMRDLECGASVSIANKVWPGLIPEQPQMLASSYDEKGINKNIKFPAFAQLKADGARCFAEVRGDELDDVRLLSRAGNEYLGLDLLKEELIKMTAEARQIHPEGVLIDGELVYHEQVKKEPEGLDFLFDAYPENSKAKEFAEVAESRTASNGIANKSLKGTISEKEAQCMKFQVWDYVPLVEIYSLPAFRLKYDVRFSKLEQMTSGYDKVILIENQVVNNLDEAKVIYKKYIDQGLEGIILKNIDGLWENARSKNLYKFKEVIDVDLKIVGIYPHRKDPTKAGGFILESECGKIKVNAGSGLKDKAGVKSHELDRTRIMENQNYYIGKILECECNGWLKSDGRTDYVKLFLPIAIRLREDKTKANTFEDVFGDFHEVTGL
Procedure: Candidate ligase inhibitors identified by CADD were assayed for their ability to inhibit hLigI and T4 DNA ligase using a high-throughput, fluorescence energy transfer-based DNA joining assay (22). Duplicate reactions (30 μL) containing 10 pmol of nicked DNA substrate and either 0.25 pmol of hLigI or 10 units of T4 DNA ligase were incubated in the presence or absence of 100 μmol/L of the putative inhibitor. DNA binding by the candidate DNA ligase inhibitors was measured by displacement of ethidium bromide from DNA as previously described (30).
In addition, to identify compounds that may be non-specific inhibitors of DNA joining, the 192 compounds were also assayed for their ability to inhibit bacteriophage T4 DNA ligase, an enzyme that utilizes the same reaction mechanism as hLigI, has similar adenylation and OB-fold domains but lacks a DBD domain. (6) Although this is also an ATP-dependent DNA ligase, it lacks the domain containing the binding pocket targeted by the in silico screen. Compounds that inhibited T4 DNA ligase were eliminated as non-specific inhibitors that most likely bind to the DNA.

[7] = read-out: % of inhibition @ 100 μM (Helen's data) hLigI
[8] = cell growth, compound alone, read-out: IC50 (μM) MCF10A
[9] = 100 μM, read-out: % of inhibition @ 100 μM (Helen's data) hLigIV
[10] = read-out: % of inhibition @ 100 μM (Helen's data) hLigIII
[11] = sections 'high concentrations (~50 μM)' and 'active in vitro that decreased cell growth', same figures given in μM elsewhere in Table 6, read-out: IC50 MCF10A (head without unit)

T1 sequence (P18858 whole entry): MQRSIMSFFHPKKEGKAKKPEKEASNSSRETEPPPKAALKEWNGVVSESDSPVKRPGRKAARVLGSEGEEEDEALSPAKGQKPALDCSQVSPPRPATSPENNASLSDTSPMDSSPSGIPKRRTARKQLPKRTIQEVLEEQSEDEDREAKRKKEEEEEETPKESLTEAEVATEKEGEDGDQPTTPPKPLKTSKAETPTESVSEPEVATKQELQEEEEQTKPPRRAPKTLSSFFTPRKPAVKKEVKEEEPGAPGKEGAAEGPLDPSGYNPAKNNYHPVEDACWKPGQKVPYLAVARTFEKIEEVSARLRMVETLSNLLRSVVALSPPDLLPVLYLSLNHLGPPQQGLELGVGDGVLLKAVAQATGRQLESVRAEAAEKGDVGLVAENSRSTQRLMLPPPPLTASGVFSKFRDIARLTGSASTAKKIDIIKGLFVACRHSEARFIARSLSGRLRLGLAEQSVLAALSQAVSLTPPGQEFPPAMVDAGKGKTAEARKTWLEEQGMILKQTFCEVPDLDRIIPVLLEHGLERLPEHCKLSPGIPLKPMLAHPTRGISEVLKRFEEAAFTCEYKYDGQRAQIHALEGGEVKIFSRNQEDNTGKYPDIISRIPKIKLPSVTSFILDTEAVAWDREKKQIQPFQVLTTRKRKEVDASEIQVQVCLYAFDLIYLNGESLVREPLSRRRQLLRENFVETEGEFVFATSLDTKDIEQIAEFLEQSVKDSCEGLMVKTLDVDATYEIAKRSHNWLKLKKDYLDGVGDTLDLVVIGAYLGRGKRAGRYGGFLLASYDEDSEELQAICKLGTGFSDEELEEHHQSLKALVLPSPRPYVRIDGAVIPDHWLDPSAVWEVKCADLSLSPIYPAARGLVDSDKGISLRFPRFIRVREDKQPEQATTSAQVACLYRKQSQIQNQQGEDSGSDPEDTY

## O=C(O)c1ccccc1Nc1ccc([N+](=O)[O-])c2nonc12 [Compound 16]
hLigI; [7]
  inhibition at 100 µM: < 20%
MCF10A cells [1]; [8]
  IC50: 6 µM
HCT116 and MCF10A cells [2]
  IC50: < 20 µM
MCF10A cells [3]
  MMS: Ratios of IC50 MCF10A: 1
Human DNA ligase IV; [9]
  inhibition at 100 µM: < 20%
Human DNA ligase III; [10]
  inhibition at 100 µM: < 20%

## C=CCN1C(=O)/C(=N\NC(=O)c2ccccc2O)c2ccccc21 [Compound 78]
HCT116 cells [4]; cell growth, compound alone, read-out: IC50 (μM) HCT116
  IC50: 10 µM
HCT116 cells [4]; sections 'high concentrations (~50 μM)' and 'active in vitro that decreased cell growth', same figures given in μM elsewhere in Table 6, read-out: IC50 HCT116 (head without unit)
  IC50: 10 µM
MCF10A cells [1]; [8]
  IC50: 7.5 µM
MCF10A cells [1]; [11]
  IC50: 7.5 µM
HCT116 and MCF10A cells [2]
  IC50: < 20 µM
HCT116 and MCF10A cells [5]
  enhancement of the cytostatic effect of MMS: enhance the cytostatic effect of MMS
MCF10A cells [3]; compound alone vs combination with 3-AB (2 mM)
  IC50 ratios of non- and 3-AB treated cells MCF10A: 1
MCF10A cells [3]
  MMS: Ratios of IC50 MCF10A: 1.5
HCT116 cells [6]
  MMS: Ratios of IC50 HCT116: 1
Human DNA ligase IV; read-out: % of inhibition @ 100 μM (Helen's data) hLigIV
  inhibition at 100 µM: < 20%
Human DNA ligase III; [10]
  inhibition at 100 µM: > 20%

## CCn1nc(N)c2c(O)nc(O)cc21 [Compound 93]
hLigI; 100 uM
  % activity Inhibition hLigI 100 uM: Ø
hLigI; read-out: In vitro % inhib hLigI 100
  inhibition at 100 µM: 0%
hLigIV/XRCC4
  % activity Inhibition hLigIV gel: Ø
T4 DNA ligase; 100 uM
  % activity Inhibition LigT4 100 uM: Ø
T4 DNA ligase; 100 μM, read-out: In vitro % inhib T4 100
  inhibition at 100 µM: 0%
Human DNA ligase IV; 100 μM, read-out: In vitro % inhib hLigIV 100
  inhibition at 100 µM: 37 ± 6%
Human DNA ligase IV; 100 uM, Ø not defined (0 in Table 5A), read-out: % activity Inhibition hLigIV 100 uM
  inhibition at 100 µM: 37.6 ± 6.1%
Human DNA ligase IV; in vitro screen
  inhibition of human DNA ligase IV, in words: specific for DNA ligase IV
Human DNA ligase III; 100 μM, read-out: In vitro % inhib hLigIII 100
  inhibition at 100 µM: 0%
Human DNA ligase III; 100 uM, Ø not defined (0 in Table 5A)
  % activity Inhibition hLigIII 100 uM: Ø

## O=C(Nc1nc2ccccc2s1)c1ccc(Cl)c([N+](=O)[O-])c1 [Compound 165]
hLigI; [7]
  inhibition at 100 µM: < 20%
MCF10A cells [1]; [8]
  IC50: 3 µM
MCF10A cells [1]; [11]
  IC50: 3 µM
HCT116 and MCF10A cells [2]
  IC50: < 20 µM
MCF10A cells [3]
  MMS: Ratios of IC50 MCF10A: 1
Human DNA ligase IV; 100 μM
  % of inhibition @ 100 μM (Helen's data) hLigIV: 37%
Human DNA ligase IV; [9]
  inhibition at 100 µM: 37.2%
Human DNA ligase III; [10]
  inhibition at 100 µM: < 20%

## Nn1cnnc1N/N=C/c1cc([N+](=O)[O-])c(Cl)cc1Cl [Compound 195]
hLigI; [7]
  inhibition at 100 µM: 26%
MCF10A cells [1]; [8]
  IC50: 3 µM
MCF10A cells [1]; [11]
  IC50: 3 µM
HCT116 and MCF10A cells [2]
  IC50: < 20 µM
MCF10A cells [3]
  MMS: Ratios of IC50 MCF10A: 1.2
Human DNA ligase IV; [9]
  inhibition at 100 µM: < 20%
Human DNA ligase III; [10]
  inhibition at 100 µM: 24%
